Experimental data from US12264175B2, “Compositions and methods for capping RNAS” (Verve Therapeutics, Inc., priority 2020, dated 2025).

Test system: mouse PCSK9 (mPCSK9)
Assay: In vivo base editing in mouse with LNP of sgRNA and capped ABE mRNA (NGS editing efficiency)
Conditions: LNP with sgRNA targeting mPCSK9 and ABE mRNA; mice; FIG. 7
Experimental: Lipid nanoparticles (LNPs) are generated by microfluidic mixing using the Precision Nanosystems NanoAssemblr system according to the manufacturer's protocol, with some optimization for individual payloads. The resulting LNPs are filtered using 0.2-micron filters and stored at 4° C. or frozen at […]
LNPs used in these studies are prepared as described above in Example 6 (A), comprising chemically synthesized sgRNAs targeting the mouse ANGPTL3 (mANGPTL3) and/or mouse PCSK9 (mPCSK9) genes and SpCas9 or ABE8.8 mRNA in a 1:1 weight ratio, are administered to C57BL/6 mice (n=5) intravenously via the lateral tail vein or retro-orbital sinus in a total volume of 5-10 ml/kg. […]
Paired-end reads are analyzed with the CRISPResso2 pipeline (Clement, K. et al., Nat. Biotech. 2019, 37, 224-226). Briefly, low-quality reads are filtered out, adapter sequences are trimmed from the reads, and the paired-end reads are merged and aligned to the amplicon sequence. The editing percentage is calculated as the number of reads supporting […], over the total number of aligned reads. For ABE, the editing percentage is calculated as the number of reads supporting […], over the total number of aligned reads. […]

COC1C(OP([O-])(=S)OCC2OC(n3cnc4c(=O)[nH]c(N)nc43)C(O)C2O)C(COP(=O)(O)OP(=O)(O)OP(=O)(O)OCC2OC(n3c[n+](C)c4c(=O)[nH]c(N)nc43)C(O)C2O)OC1n1cnc2c(N)ncnc21 (stereo not shown) [1007a, m^7G(ppp)Am(ps)G]
hepatocyte editing levels as compared to mRNA with 5′ end region motif 1002a: similar
